Source: ChEMBL document CHEMBL1154197, “Synthesis and biological evaluation of berberine analogues as novel up-regulators for both low-density-lipoprotein receptor and insulin receptor” (2009)
Calls of active or inactive are those of the source. No cut-off for these calls is given here.

How the values were obtained:
[1] = tested on: HepG2; assay: Upregulation of LDLR mRNA expression in human liver HepG2 at 10 ug/mL after 8 hrs by RT-PCR relative to control; format: functional
[2] = tested on: HepG2; assay: Upregulation of InsR mRNA expression in human liver HepG2 at 10 ug/mL after 8 hrs by RT-PCR relative to control; format: functional
[3] = tested on: HepG2; assay: Upregulation of LDLR […] expression in human liver HepG2 at 10 ug/mL after 12 hrs by flow cytometry; format: functional, cell-based
[4] = tested on: HepG2; assay: Upregulation of InsR […] expression in human liver HepG2 at 10 ug/mL after 12 hrs by flow cytometry; format: functional, cell-based

Row | Compound | fold change (FC) [1] | fold change (FC) [2] | Activity [3] | Activity [4]
1 | COc1cc2cc3[n+](cc2cc1OC)CCc1cc2c(cc1-3)OCO2.[Cl-] [PSEUDOBERBERINE] | 3.1 | 1.2 |  | 
2 | COc1cc2c(cc1OC)-c1cc3cc(OC)c(OC)cc3c[n+]1CC2.[Cl-] | 1.1 | 1.1 |  | 
3 | COc1c(O)ccc2cc3[n+](cc12)CCc1cc2c(cc1-3)OCO2.[Cl-] [THALIFENDINE] | 1.6 | 1.7 | Active | Active
4 | COc1cc2cc3[n+](cc2cc1OC)CCc1cc(OC)c(OC)c(OC)c1-3.[Cl-] | 1.1 | 0.8 |  | 
5 | COc1cc2c(cc1O)CC[n+]1cc3cc(O)ccc3cc1-2.[Cl-] | 1.4 | 1.2 |  | 
6 | COc1ccc2cc3[n+](cc2c1OC)CCc1cc(OCc2ccccc2)ccc1-3.[Cl-] | 1.3 | 1.3 |  | 
7 | COc1cc2c(cc1O)CC[n+]1cc3cc(OC)c(OC)cc3cc1-2.[Cl-] [DEHYDRODISCRETINE CHLORIDE] | 1 | 0.6 |  | 
8 | COc1cc2c(cc1OC)-c1cc3ccc(O)cc3c[n+]1CC2.[Cl-] | 1 | 0.9 |  | 
9 | COc1cc2c(cc1O)-c1cc3cc(OC)c(OC)cc3c[n+]1CC2.[Cl-] | 1.1 | 0.8 |  | 
10 | COc1cc2cc3[n+](cc2cc1OC)CCc1cc(OCc2ccccc2)ccc1-3.[Cl-] | 1 | 0.8 |  | 
11 | COc1cc2c(cc1OCc1ccccc1)-c1cc3ccc(OC)c(OC)c3c[n+]1CC2.[Cl-] | 1.5 | 1.7 |  | 
12 | COc1cc2cc3[n+](cc2cc1OC)CCc1cc(O)ccc1-3.[Cl-] | 0.9 | 0.7 |  | 
13 | COc1ccc2cc3[n+](cc2c1OC)CCc1cc2c(cc1-3)OCO2.[Cl-] [BERBERINE CHLORIDE] | 1.9 | 2.3 |  | 
14 | COc1ccc2cc3[n+](cc2c1OC)CCc1cc(O)ccc1-3.[Cl-] | 0.8 | 1.2 |  | 
15 | COc1cc2c(cc1O)CC[n+]1cc3cc(OC)c(OC)c(OC)c3cc1-2.[Cl-] | 1 | 1 |  | 
16 | COc1cc2c(c(OC)c1OC)-c1cc3ccc(OC)c(OC)c3c[n+]1CC2.[Cl-] | 1.1 | 1.2 |  | 
17 | Oc1ccc2cc3[n+](cc2c1)CCc1cc2c(cc1-3)OCO2.[Cl-] | 1.9 | 1.4 |  | 
